Experimental data reported in patent US11622946B2, “Uses of a carotenoid in the treatment or prevention of stress induced conditions” (GREENALTECH, S.L., priority 2016, dated 2023).
Like-named read-outs stand apart in the source and are kept apart here.

Assays:
[1] = target: T1, human Gluocorticoid receptor (GR) (Homo sapiens, UniProt P04150); experiment: GR antagonist assay (GeneBLAzer beta-lactamase reporter, GR-UAS-bla HEK 293T cells, dexamethasone as agonist); assay type: cell-based; details: for antagonist effect on GR (in words) / GR inhibition: against dexamethasone; for GR inhibition: at 10 μM
T1 construct: expressed in transfected cells; host or cells: GeneBLAzer UAS-bla HEK 293T
T1 sequence (P04150 524-758 limits assumed): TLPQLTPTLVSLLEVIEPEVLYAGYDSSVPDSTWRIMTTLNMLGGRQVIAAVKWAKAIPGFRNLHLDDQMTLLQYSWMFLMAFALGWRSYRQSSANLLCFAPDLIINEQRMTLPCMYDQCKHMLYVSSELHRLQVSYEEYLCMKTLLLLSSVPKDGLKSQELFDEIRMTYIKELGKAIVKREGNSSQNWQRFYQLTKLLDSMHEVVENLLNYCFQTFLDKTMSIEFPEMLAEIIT
Description: An antagonist assay for GR was performed.
These cells stably express a beta-lactamase reporter gene under the transcriptional control of an upstream activator sequence (UAS). When an agonist binds to the LBD of the GAL4 (DBD)-GR (LBD) fusion protein, the protein binds to the UAS, resulting in expression of beta-lactamase.
32 μL of cell suspension is added to the wells and pre-incubated at 37° C./5% CO2 in a humidified incubator with compounds and control antagonist titration for 30 minutes. 4 μL of 10× control agonist. Dexamethasone at the pre-determined EC80 concentration is added to wells containing the control antagonist or compounds. The plate is incubated for 16-24 hours at 37° C./5% CO2 in a humidified incubator. 8 μL of 1 μM Substrate Loading Solution is added to each well and the plate is incubated for 2 hours at room temperature. The plate is read on a fluorescence plate reader.

[2] = target: T2, progesterone receptors (PR) (Homo sapiens, UniProt P06401); experiment: PR antagonist assay (GeneBLAzer beta-lactamase reporter, UAS-bla HEK 293T cells, R5020 as agonist); assay type: cell-based; details: for antagonist action on PR (in words): against promegestone (R5020)
T2 sequence (P06401 679-933 limits assumed): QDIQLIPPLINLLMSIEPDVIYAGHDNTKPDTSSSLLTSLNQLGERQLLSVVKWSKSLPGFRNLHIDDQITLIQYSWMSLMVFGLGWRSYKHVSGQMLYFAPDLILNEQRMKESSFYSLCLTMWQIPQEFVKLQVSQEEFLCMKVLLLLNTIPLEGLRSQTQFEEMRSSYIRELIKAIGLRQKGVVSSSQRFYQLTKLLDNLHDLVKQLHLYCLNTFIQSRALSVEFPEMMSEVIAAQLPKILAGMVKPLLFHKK
Description: An antagonist assay for PR was performed. In this assay, an engineered cell line (UAS-bla HEK 293T) expressing PR is used to test the action of two xanthophylls. The detection method consists in GeneBLAzer® technology, based on mammalian-optimized Beta-lactamase reporter gene (bla) combined with a FRET-enabled substrate.
In FIG. 7, neoxanthin and fucoxanthin were tested against the agonist promegestone (R5020).

HaCat cell line = experiment: Hydrocortisone-induced DNA damage assay (HCS DNA Damage kit, phosphorylated H2AX); assay type: cell-based, human; details: compounds at 0.1 μM, 1 h before 10 μM hydrocortisone
Description: HaCat cell line, a spontaneously transformed aneuploid immortal keratinocyte cell line from adult human skin was used. Keratinocytes were cultured in DMEM medium supplemented with 10% FCS. […] Assays were performed with cells between 80% and 90% of confluence and with a cell viability above 90% (tested by trypan blue staining). 20000 cells per experimental condition were seeded in 24 well plates with 1 mL of medium for 24 h. Culture medium was substituted for not supplemented DMEM and after a 24 hour incubation, compounds were added at 0.1 μM to assay wells. […] Plate was incubated for 30 min before the DNA extraction. DNA damage was quantified using the HCS DNA Damage kit (ThermoFisher®). “The HCS DNA Damage kit simultaneously and quantitatively measures two important cell-health parameters: DNA damage and cytotoxicity. DNA damage is detected using an antibody against phosphorylated H2AX (Ser139) which is induced in response to double-strand break (DSB) formation”. Plate was read using Fluoroscan at 355-460 nm for Hoechst (cell number) and 485-538 nm for the secondary antibody (DNA damage). Background is subtracted and relativized with values obtained from Hoechst staining in order to obtain the value of DNA damage relative to the cell count of each well. Results were normalized using the basal values.

[3] = test system: p53 in HaCat keratinocytes; experiment: p53 quantification by ELISA after hydrocortisone (Human Total p53 DuoSet IC ELISA); assay type: cell-based; details: compounds at 0.1 and 1 μM, 1 h before 10 μM hydrocortisone, 2 h
Description: HaCat keratinocytes were cultured in DMEM medium supplemented with 10% FCS. […] Assays were performed with cells between 80% and 90% of confluence and with a cell viability above 90% (tested by trypan blue staining). 20000 cells per experimental condition were seeded in 24 well plates with 1 mL of medium for 24h. Culture medium was substituted for not supplemented DMEM and after a 24 hour incubation, compounds were added at 0.1 and 1 μM to assay wells. […] Cells were lysed in 100 μL of lysis buffer and 5 μg of total cell extract were used for the quantitative ELISA. Optical density was measured at 450 nm and background was subtracted.

[4] = test system: triple negative breast adenocarcinoma cell line MDA-MB-231; experiment: Cytotoxicity by the MTT method; details: MDA-MB-231, 72 h, read-out: EC50 (cytotoxic effect)
Description: For that purpose the cytotoxic effects (EC50) of fucoxanthin (063-06691, Wako Chemicals) alone and combined with paclitaxel (T1912, Sigma-Aldrich) on the triple negative breast adenocarcinoma cell line MDA-MB-231 (ECACC: 92020424) were assessed.
In a first setup, MDA-MB-231 cells were seeded in 96 well plates with 100 μL of DMEM +10% FBS and incubated at 37° C., 5% CO2 and 90% humidity. After 24 hours, with a confluence and viability of between 80 and 90% as assessed by trypan blue test, cells were treated with serial dilutions (1:3) in DMEM+10% FBS of fucoxanthin solubilized in DMSO ranging from 100 μM to 15.2 nM.
In a second setup, MDA-MB-231 cells were seeded in 96 well plates with 100 μL of DMEM +10% FBS and incubated at 37° C., 5% CO2 and 90% humidity. After 24 hours, with a confluence and viability of between 80 and 90% as assessed by trypan blue test, cells were treated with serial dilutions (1:3) of paclitaxel in DMEM+10% FBS ranging from 1 μM to 0.15 nM or with both the same concentrations of paclitaxel plus a fixed subtoxic concentration of fucoxanthin (1 μM) solubilized in DMSO (100 μM).

| Compound | antagonist effect on GR (in words) [1] | GR inhibition [1] | antagonist action on PR (in words) [2] | protection of DNA from hydrocortisone-induced damage (in words) (HaCat cell line) | p53 expression in the presence of hydrocortisone (in words) [3] | other results |
| --- | --- | --- | --- | --- | --- | --- |
| CC1=C(/C=C/C(C)=C/C=C/C(C)=C/C=C/C=C(C)/C=C/C=C(C)/C=C/C2=C(C)C(=O)[C@@H](O)CC2(C)C)C(C)(C)C[C@H](O)C1=O [astaxanthin] | neither compounds exercise an antagonist effect on GR | – | – | – | – | – |
| CC1=C(/C=C/C(C)=C/C=C/C(C)=C/C=C/C=C(C)/C=C/C=C(C)/C=C/C2=C(C)CCCC2(C)C)C(C)(C)CCC1 [beta-carotene] | neither compounds exercise an antagonist effect on GR | – | – | – | – | – |
| C\C(C=C=C1C(C)(C)C[C@H](O)C[C@@]1(C)O)=C/C=C/C(C)=C/C=C/C=C(C)/C=C/C=C(\C)C(=O)/C=C1\C(C)(C)C[C@H](O)C[C@@]1(C)O [iso-fucoxanthinol] | – | – | – | – | – | maximum GR inhibition ([1]; at 10 mM (so in the source), against dexamethasone (FIG. 6)): 80% |
| CC(=C/C=C/C(C)=C/C=C/C=C(C)/C=C/C=C(\C)C=C=C1C(C)(C)C[C@H](O)C[C@@]1(C)O)/C=C/[C@@]12O[C@]1(C)C[C@@H](O)CC2(C)C [neoxanthin] | total antagonist | above 85% | None of them showed an important antagonist action | capable of protecting DNA | increase p53 expression | – |
| CC(=O)O[C@H]1C(=O)[C@@]2(C)[C@H]([C@H](OC(=O)c3ccccc3)[C@]3(O)C[C@H](OC(=O)[C@H](O)[C@@H](NC(=O)c4ccccc4)c4ccccc4)C(C)=C1C3(C)C)[C@]1(OC(C)=O)CO[C@@H]1C[C@@H]2O [paclitaxel, reference compound] | – | – | – | – | – | EC50 ([4]; Homo sapiens): 0.0044 µM |
| fucoxanthin | parcial antagonist | 50% | None of them showed an important antagonist action | capable of protecting DNA | increase p53 expression | concentration from which compound acts as GR antagonist ([1]; against dexamethasone (FIG. 5)): 30 nM; PR inhibition ([2]; at the highest concentration tested, against R5020): 30%; EC50 ([4]; MTT, fucoxanthin alone): 7.46 µM |
